According to ChEMBL document CHEMBL5143692, “Design, synthesis and conformation-activity relationship analysis of LNA/BNA-type 5'-O-aminoribosyluridine as MraY inhibitors” (Bioorg Med Chem, 2022):
Values after ≈ are worked out from the molar mass of the structure shown.

Tests used:
[1] = test system: Mycobacteroides abscessus; experiment: Antibacterial activity against Mycobacterium abscessus ATCC 19977 assessed as inhibition of bacterial growth incubated for 5 days by microplate reader analysis; format: functional; conditions: ATCC 19977, 120 h, time 5 day
[2] = target: T1, Phospho-N-acetylmuramoyl-pentapeptide-transferase (Staphylococcus aureus, UniProt P0C1R8); experiment: Inhibition of Staphylococcus aureus MraY assessed as reduction of dansylated lipid I formation using UDP-MurNAcdansylpentapeptide as substrate incubated for 3 to 4 hrs by fluorescence based analysis
T1 sequence (P0C1R8 whole entry): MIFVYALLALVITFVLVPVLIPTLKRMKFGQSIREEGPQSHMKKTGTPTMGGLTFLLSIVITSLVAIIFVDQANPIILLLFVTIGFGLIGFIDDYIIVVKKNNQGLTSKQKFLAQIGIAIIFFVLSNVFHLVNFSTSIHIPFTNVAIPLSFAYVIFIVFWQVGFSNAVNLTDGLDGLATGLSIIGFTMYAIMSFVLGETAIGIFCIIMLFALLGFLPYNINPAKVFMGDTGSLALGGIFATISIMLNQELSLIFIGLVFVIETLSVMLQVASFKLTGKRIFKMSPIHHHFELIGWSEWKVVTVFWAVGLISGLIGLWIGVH

SMILES | MIC50 [1] [µg/mL] | IC50 [2] [µM]
NC[C@H]1O[C@@H](O[C@@H](C#Cc2ccccc2)[C@H]2O[C@@H](n3ccc(=O)[nH]c3=O)[C@H](O)[C@@H]2O)[C@H](O)[C@@H]1O | > 32 | 2.3
C#C[C@H](O[C@@H]1O[C@H](CN)[C@@H](O)[C@H]1O)[C@@]12CO[C@@H]([C@H](n3ccc(=O)[nH]c3=O)O1)[C@@H]2O | > 32 | 24
C#C[C@H](O[C@@H]1O[C@H](CN)[C@@H](O)[C@H]1O)[C@H]1O[C@@H](n2ccc(=O)[nH]c2=O)[C@H](O)[C@@H]1O | > 32 | 20

Second part, the molecule after the results:

MIC50 [1] [µg/mL] | IC50 [2] [µM] | SMILES
> 32 | 46 | NC[C@H]1O[C@@H](OC[C@@]23CO[C@@H]([C@H](n4ccc(=O)[nH]c4=O)O2)[C@@H]3O)[C@H](O)[C@@H]1O
> 32 | 37 | NC[C@H]1O[C@@H](O[C@@H](C#Cc2ccccc2)[C@@]23CO[C@@H]([C@H](n4ccc(=O)[nH]c4=O)O2)[C@@H]3O)[C@H](O)[C@@H]1O
32 (≈ 77 µM) | 4.5 | CC[C@H](O[C@@H]1O[C@H](CN)[C@@H](O)[C@H]1O)[C@@]12CO[C@@H]([C@H](n3ccc(=O)[nH]c3=O)O1)[C@@H]2O
